From publication PMC8062632, “Structural studies of phosphorylation-dependent interactions between the V2R receptor and arrestin-2” (Nature Communications, 2021)

What was measured:
Assay in all cases: FlAsH-BRET recruitment of MEK1 to arrestin2
Format in all cases: cell-based
V2R-1 (V2R-T347A) = conditions: HEK293 cells; for ΔBRET ratio, MEK1 recruitment to arrestin2: V2R-1, Argipressin 10 μM, 37 °C, 10 min
Experimental: (§1) The blue ball: K357 site in arrestin2; Yellow pentagram: the position of FlAsH labeled in MEK1. […] Data are expressed as ΔBRET ratio relative values and represent the mean ± SEM of three independent experiments (n = 3). […] Source data are provided in the Source Data file.
(§2) 24 h after transfection, the cells were detached and distributed into 96-well plates at a density of ~25,000 cells per well. After another 24 h of incubation at 37 °C, the cells were labeled FlAsH-EDT2 for 40 min at 37 °C and washed twice with Tyrode’s buffer (140 mM NaCl, 2.7 mM KCl, 1 mM CaCl2, 12 mM NaHCO3, 5.6 mM D-glucose, 0.5 mM MgCl2, 0.37 mM NaH2PO4, and 25 mM HEPES, pH = 7.4) and stimulated with or without Argipressin (final concentration of 10 μM) at 37 °C for 10 min Luciferase substrate coelenterazine-h was added at a final concentration of 5 μM before light emissions were recorded using a Mithras LB940 microplate reader (Berthold Technologies) equipped with BRET filter sets. The BRET signal was determined by calculating the ratio of the light intensity emitted by YFP ([…]) over the light intensity emitted by Rluc ([…]). Source data are provided in a Source Data file.

V2R-3 (V2R-S357A) = conditions: HEK293 cells; for ΔBRET ratio, MEK1 recruitment to arrestin2: V2R-3, Argipressin 10 μM, 37 °C, 10 min
Experimental: as §1, §2

[1] = tested on: V2R-6-7 (V2R-S363A/S364A); conditions: HEK293 cells; for ΔBRET ratio, MEK1 recruitment to arrestin2: V2R-6-7, Argipressin 10 μM, 37 °C, 10 min
Experimental: as §1, §2

vasopressin
ΔBRET ratio, MEK1 recruitment to arrestin2 (V2R-1 (V2R-T347A); Data1): 0.008 | ΔBRET ratio, MEK1 recruitment to arrestin2 (V2R-1 (V2R-T347A); Data2): 0.004 | ΔBRET ratio, MEK1 recruitment to arrestin2 (V2R-1 (V2R-T347A); Data3): 0.005 | recruitment of MEK1 to arrestin2 (V2R-1 (V2R-T347A); V2 receptor T347A mutant, in words): significantly increased | MEK1-arrestin2 association in response to vasopressin stimulation (V2R-3 (V2R-S357A); S357A mutation of V2R, in words): almost abolished | ΔBRET ratio, MEK1 recruitment to arrestin2 (V2R-3 (V2R-S357A); Data1): 0 | ΔBRET ratio, MEK1 recruitment to arrestin2 (V2R-3 (V2R-S357A); Data2): 0.001 | ΔBRET ratio, MEK1 recruitment to arrestin2 (V2R-3 (V2R-S357A); Data3): 0.001 | MEK1-arrestin2 association in response to vasopressin stimulation ([1]; S363A-S364A mutations of V2R, in words): almost abolished | ΔBRET ratio, MEK1 recruitment to arrestin2 ([1]; Data1): 0 | ΔBRET ratio, MEK1 recruitment to arrestin2 ([1]; Data2): 0.001 | ΔBRET ratio, MEK1 recruitment to arrestin2 ([1]; Data3): 0
